Calls of active or inactive are those of the source. No cut-off for these calls is given here.
Tests used:
[1] = molecular target: Human immunodeficiency virus type 1 integrase (Human immunodeficiency virus 1, UniProt Q7ZJM1); assay: Inhibition of HIV-1 overall integrase activity using 5'-digoxigenin-labeled GACCCTTTTAGTCAGTGTGGAAAATCTCTAGCAGT-3' as substrate after 1 hr by ELISA
[2] = molecular target: Human immunodeficiency virus type 1 reverse transcriptase (Human immunodeficiency virus 1) (UniProt Q72547); assay: Inhibition of recombinant HIV-1 reverse transcriptase-associated RNase H activity using [3H]-labeled RNA as substrate at 10 uM after 10 mins relative to control
[3] = tested on: Human immunodeficiency virus 1; assay: Antiviral activity against HIV-1 3B infected in human MT4 cells assessed as protection against virus-induced cytopathic effect by MTT assay; assay type: functional, organism-based; conditions: Human immunodeficiency virus 1, 3B
[4] = Cytotoxicity against human MT4 cells infected with HIV-1 3B assessed as reduction in cell viability by MTT assay; assay type: cell-based
[5] = tested on: Human immunodeficiency virus 1; assay: Resistance ratio of EC50 for raltegravir-resistant HIV1 harboring integrase E92Q mutant to EC50 for wild type HIV1; assay type: functional
[6] = tested on: Human immunodeficiency virus 1; assay: Resistance ratio of EC50 for raltegravir-resistant HIV1 harboring integrase Q148H mutant to EC50 for wild type HIV1; assay type: functional
[7] = n-octanol-PBS partition coefficient, log D of the compound at pH 7.4; assay type: physicochemical
[8] = tested on: Human immunodeficiency virus 1; assay: Antiviral activity against HIV-1 3B infected in human MT4 cells assessed as inhibition of p24 antigen production at 50 to 100 times EC50 treated for 1 to 25 hrs measured at 30 hrs by ELISA; assay type: functional, organism-based
[9] = tested on: Human immunodeficiency virus 1; assay: Resistance ratio of EC50 for raltegravir-resistant HIV1 harboring integrase N155H mutant to EC50 for wild type HIV1; assay type: functional
[10] = tested on: Human immunodeficiency virus 1; assay: Resistance ratio of EC50 for raltegravir-resistant HIV1 harboring integrase G140S/Q148H double mutant to EC50 for wild type HIV1; assay type: functional
in vitro = conditions: human, MT4 cells infected with HIV-1 3B
Description: Therapeutic index, ratio of CC50 for human MT4 cells infected with HIV-1 3B to EC50 for HIV-1 3B infected in human MT4 cells

[11] = tested on: Human immunodeficiency virus 1; assay: Antiviral activity against HIV-1 3B infected in human MT4 cells assessed as inhibition of p24 antigen production by measuring time delay in loss of compound activity at 50 to 100 times EC50 by ELISA; assay type: functional
[12] = molecular target: Human immunodeficiency virus type 1 reverse transcriptase (Human immunodeficiency virus 1, UniProt Q72547); assay: Inhibition of recombinant HIV-1 reverse transcriptase-associated RNase H activity using [3H]-labeled RNA as substrate after 10 mins

Structure (SMILES) | IC50 [1] [nM] | inhibition [2] [%] | EC50 [3] [nM] | CC50 [4] [nM] | selectivity ratio (in vitro) | further results
O=C(Cc1ccccc1)Nc1ccc2c(c1)C(=O)N(O)C(=O)C2C(=O)NCc1ccc(F)cc1 (stereo not drawn) | 230 | 46.4 | > 31000 | 31000 | – | –
O=C(NCc1ccc(F)cc1)c1c(O)n(O)c(=O)c2ccccc12 | – | – | – | – | – | Ratio EC50 [5]: 1; Ratio EC50 [6]: 1; logD [7]: 0.56; inhibition [8]: Active; Ratio EC50 [9]: 1; Ratio EC50 [10]: 1
O=C(NCc1ccc(F)cc1)C1C(=O)N(O)C(=O)c2cc(C(F)(F)F)ccc21 (stereo not drawn) | 20 | 25.5 | 600 | > 56000 | > 94 | –
O=C(Nc1ccc2c(c1)C(=O)N(O)C(=O)C2C(=O)NCc1ccc(F)cc1)c1ccccn1 (stereo not drawn) | 160 | – | > 1200 | 1000 | – | –
O=C(NCc1ccc(F)cc1)C1C(=O)N(O)C(=O)c2c(F)cccc21 (stereo not drawn) | 880 | 31.6 | 4460 | 149000 | 33 | –
CC(=O)Nc1ccc2c(c1)C(=O)N(O)C(=O)C2C(=O)NCc1ccc(F)cc1 (stereo not drawn) | 100 | 25.2 | 29300 | 149000 | 5 | –
Cc1cn([C@H]2C[C@H](N=[N+]=[N-])[C@@H](CO)O2)c(=O)[nH]c1=O [ZIDOVUDINE] | – | – | – | – | – | Time [11]: 4 h
CC(C)c1nc(CN(C)C(=O)N[C@H](C(=O)N[C@@H](Cc2ccccc2)C[C@H](O)[C@H](Cc2ccccc2)NC(=O)OCc2cncs2)C(C)C)cs1 [RITONAVIR] | – | – | – | – | – | Time [11]: 25 h
O=C(Cc1cccs1)Nc1ccc2c(c1)C(=O)N(O)C(=O)C2C(=O)NCc1ccc(F)cc1 (stereo not drawn) | 60 | 28.9 | > 41000 | 41000 | – | –
Cc1nnc(C(=O)NC(C)(C)c2nc(C(=O)NCc3ccc(F)cc3)c(O)c(=O)n2C)o1 | – | – | – | > 8000 | – | –
O=C(Nc1ccc2c(c1)C(=O)N(O)C(=O)C2C(=O)NCc1ccc(F)cc1)c1ccccc1 (stereo not drawn) | 80 | 41.2 | > 21000 | 21000 | – | –

Continued, in another order:

IC50 [1] [nM] | inhibition [2] [%] | Structure (SMILES) | EC50 [3] [nM] | CC50 [4] [nM] | selectivity ratio (in vitro) | further results
10 | 69.1 | O=C(NCc1ccccc1)c1c(O)n(O)c(=O)c2cc([N+](=O)[O-])ccc12 | 210 | 118000 | 564 | –
10 | 60 | O=C(Nc1ccccc1)c1c(O)n(O)c(=O)c2cc([N+](=O)[O-])ccc12 | 170 | 115000 | 679 | –
260 | 15.5 | COc1ccc2c(c1)C(=O)N(O)C(=O)C2C(=O)NCc1ccc(F)cc1 (stereo not drawn) | 6500 | 21000 | 3 | –
240 | 21.9 | O=C(NCc1ccc(F)cc1)C1C(=O)N(O)C(=O)c2cc(F)ccc21 (stereo not drawn) | 730 | 116000 | 162 | –
30 | 48.2 | O=C(NCc1ccc(F)cc1)c1c(O)n(O)c(=O)c2ccc([N+](=O)[O-])cc12 | 270 | > 125000 | > 463 | –
70 | – | N#Cc1ccc2c(C(=O)NCc3ccc(F)cc3)c(O)n(O)c(=O)c2c1 | 670 | > 125000 | > 187 | –
110 | 29.4 | Nc1ccc2c(c1)C(=O)N(O)C(=O)C2C(=O)NCc1ccc(F)cc1 (stereo not drawn) | 23300 | 253000 | 10 | –
60 | – | O=C(NCCc1ccc(F)cc1)c1c(O)n(O)c(=O)c2cc([N+](=O)[O-])ccc12 | 950 | > 250000 | > 262 | –
60 | 49 | CCCCCCNC(=O)c1c(O)n(O)c(=O)c2cc([N+](=O)[O-])ccc12 | 4210 | > 250000 | > 59 | –
140 | 26.3 | O=C(NCc1ccc(F)cc1)C1C(=O)N(O)C(=O)c2cc(Cl)ccc21 (stereo not drawn) | 4190 | 106000 | – | –
30 | – | O=C(Nc1ccc(F)cc1)c1c(O)n(O)c(=O)c2cc([N+](=O)[O-])ccc12 | 190 | 186000 | 981 | –
10 | 78.7 | O=C(NCc1ccc(F)cc1)c1c(O)n(O)c(=O)c2cc([N+](=O)[O-])ccc12 | – | – | – | IC50 [12]: 4800 nM
240 | 24.5 | O=C(NCc1ccc(F)cc1)C1C(=O)N(O)C(=O)c2ccc(F)cc21 (stereo not drawn) | 3160 | 123000 | 39 | –
60 | 38.7 | O=C(NCc1ccc(F)cc1)C1C(=O)N(O)C(=O)c2cc(Br)ccc21 (stereo not drawn) | 2990 | 99500 | 33 | –
10 | 67.2 | COc1ccc(CNC(=O)c2c(O)n(O)c(=O)c3cc([N+](=O)[O-])ccc23)cc1 | 2970 | > 250000 | > 84 | –
